Assay results as given in ChEMBL document CHEMBL1127540, “Three-dimensional pharmacophores from binding data” (J Med Chem, 1994).
Starred links: 1 amine or outer side, 2 acyl side, 3 side chain; linkers in the order of their positions; H or OH if unused. Non-standard residues stand in square brackets, D forms with d. Residues, ends and D or L forms follow the SMILES beside them. Hexanoyl(5S-NH,4S-OH,6-Ph) = O=C(CC[C@H](O)[C@H](Cc1ccccc1)N[*:1])[*:2]; X3 = O=C([C@@H]1CCC[C@@H]1[C@H](O)[C@H](Cc1ccccc1)N[*:1])[*:2]; X2 = CC(C)C[C@H](N[*:1])[C@@H](O)CN1CCC[C@@H]1C(=O)[*:2]; X10 = O=C([C@H]1CCCN1C[C@H](Cc1ccc(O)cc1)N[*:1])[*:2]; Sta = CC(C)C[C@H](N)[C@@H](O)CC(=O)O; Lac = C[C@H](O)C(=O)O

What follows are compounds tested against Human immunodeficiency virus type 1 protease (Human immunodeficiency virus 1, UniProt Q72874) (assay: Binding affinity to HIV-1 protease).

| SMILES | Ki [nM] |
| --- | --- |
| CC(C)(C)OC(=O)N[C@@H](Cc1ccccc1)[C@H](O)C(=O)N[C@@H](CCC(=O)O)C(=O)N[C@@H](Cc1ccccc1)C(=O)O | 3310 |
| CC[C@H](C)[C@H](NC(=O)[C@H]1CCCN1C[C@H](O)[C@H](CC(C)C)NC(=O)[C@H](CC(N)=O)NC(=O)[C@H](CC(C)C)NC(=O)[C@H](CO)NC(C)=O)C(=O)OC (Ac-SLN[X2]I-OMe) | 977 |
| NC(=O)C[C@H](NC(=O)OCc1ccccc1)C(=O)N[C@@H](Cc1ccccc1)C(=O)C(F)(F)CCc1ccccc1 | 2.09 |
| COC(=O)[C@@H](NC(=O)[C@@H](NC(=O)CC[C@H](O)[C@H](Cc1ccccc1)NC(=O)[C@H](C)NC(=O)OCc1ccccc1)C(C)C)C(C)C | 120 |
| CC(=O)N[C@@H](CO)C(=O)N[C@@H](CCC(N)=O)C(=O)N[C@@H](CC(N)=O)C(=O)N[C@@H](Cc1ccc(O)cc1)CN1CCC[C@@H]1C(=O)N[C@H](C(=O)N[C@H](C(N)=O)C(C)C)C(C)C (Ac-SQN[X10]VV-NH2) | 12900 |
| CC(=O)N[C@@H](CO)C(=O)N[C@@H](CCC(N)=O)C(=O)N[C@@H](CC(N)=O)C(=O)N[C@@H](Cc1ccccc1)CN1CCC[C@@H]1C(=O)N[C@H](C(=O)N[C@H](C(N)=O)C(C)C)C(C)C (stereo in doubt; 71) | 14100 |
| CCC(C)CNC(=O)[C@H](C(C)C)[C@@H](O)[C@H](O)[C@H](CC(C)C)NC(=O)OCc1ccccc1 (some centres not stated) | 363 |
| COC(=O)[C@@H](NC(=O)[C@@H](NC(=O)CC[C@H](O)[C@H](Cc1ccccc1)NC(=O)[C@H](C)NC(=O)[C@H](C)N)C(C)C)C(C)C (H-AA[Hexanoyl(5S-NH,4S-OH,6-Ph)]VV-OMe) | 18.2 |
| CC(C)[C@H](NC(=O)OCc1ccccc1)C(=O)N[C@@H](Cc1ccccc1)C(=O)C(F)(F)CCc1ccccc1 (stereo in doubt; 17) | 5.01 |
| CC(C)C[C@H](NC(=O)[C@H](C)NC(=O)C[C@H](O)[C@H](CC(C)C)NC(=O)[C@@H](NC(=O)[C@@H](NC(=O)[C@H](C)O)C(C)C)C(C)C)[C@@H](O)CC(=O)O (H-[Lac]VV[Sta]A[Sta]-OH) | 19100 |
| CC[C@H](C)[C@H](NC(=O)[C@H]1CCCN1C[C@H](O)[C@H](CC(C)C)NC(=O)[C@H](CC(N)=O)NC(=O)[C@H](CC(C)C)NC(=O)[C@H](CO)NC(C)=O)C(=O)N[C@H](C(=O)OC)C(C)C (Ac-SLN[X2]IV-OMe) | 11 |
| COC(=O)[C@@H](NC(=O)[C@@H](NC(=O)[C@@H]1CCC[C@@H]1[C@H](O)[C@H](Cc1ccccc1)NC(=O)[C@H](C)NC(=O)[C@H](C)NC(=O)[C@@H](N)CO)C(C)C)C(C)C (H-SAA[X3]VV-OMe) | 501 |
